These compounds were tested against Protein Wnt-3a (Human, UniProt P56704) (assay: WNT Pathway Reporter Gene Assay).
Chain of Protein Wnt-3a (P56704 whole entry): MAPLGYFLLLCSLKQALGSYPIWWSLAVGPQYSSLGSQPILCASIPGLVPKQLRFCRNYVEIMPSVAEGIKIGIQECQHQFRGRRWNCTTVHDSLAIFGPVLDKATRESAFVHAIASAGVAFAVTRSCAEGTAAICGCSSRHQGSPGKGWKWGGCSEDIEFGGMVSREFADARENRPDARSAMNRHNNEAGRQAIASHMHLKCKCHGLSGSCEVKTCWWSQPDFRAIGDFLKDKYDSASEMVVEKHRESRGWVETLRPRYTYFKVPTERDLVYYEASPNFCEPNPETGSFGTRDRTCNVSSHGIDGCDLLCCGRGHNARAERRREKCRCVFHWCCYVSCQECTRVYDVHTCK
Procedure: Materials and Methods: NIH3T3 mouse fibroblast cells (American Type Culture Collection, Manassas, Va.) were transfected with a plasmid containing a luciferase gene driven by 5 copies of TCF elements. Stale cells selected with 1 μg/mL of Zeocin (Gibco/Invitrogen, Carlsbad, Calif.) are cultured in Dulbecco's modified Eagle's medium (Invitrogen, Carlsbad, Calif.) supplemented with 10% FBS (Invitrogen), 50 unit/mL penicillin and 50 μg/mL of streptomycin (Invitrogen) at 37° C. with 5% CO2 in air atmosphere. […] After 16 hours, the firefly luciferase activities are measured with the Steady-Glo Luciferase Assay System (Promega). The cells were treated with different concentrations of compounds of this invention during the co-culture. […] To normalize for cell quantity and viability, CellTiter Glo assay is next performed in a duplicate plate.
`Cc1cc(-c2ccc(CNc3nccc4cc(-c5ccnc(C)c5)ncc34)cc2)ccn1` [US10285988, Compound 1] was tested, and the IC50 was less than 3 nM. `Cc1cc(-c2cc3ccnc(NCc4ccc(-c5ccnc(C)c5)c(C)c4)c3cn2)ccn1` [US10285988, Compound 2] gave an IC50 of less than 3 nM. `Cc1cc(-c2cc3ccnc(NCc4ccc(-c5ccnc(F)c5)c(F)c4)c3cn2)ccn1` [US10285988, Compound 28] was tested, and the IC50 was less than 3 nM. `Cc1cc(-c2ccc(CNc3nccc4cc(-c5cnccn5)ncc34)cc2)ccn1` [US10285988, Compound 35] gave an IC50 of less than 3 nM. In the case of `Cc1cc(-c2ncc(CNc3nccc4cc(-c5cnccn5)ccc34)cc2C)ccn1` [US10285988, Compound 70], the IC50 is reported as less than 3 nM.
